Assay results: publication PMC7077018, “Gas chromatography-mass spectrometry analysis, phytochemical screening and antiprotozoal effects of the methanolic Viola tricolor and acetonic Laurus nobilis extracts” (BMC Complementary Medicine and Therapies, 2020)
≈ marks a conversion by molar mass, not a printed value. Where two headings read alike, the source gives them in different places. One block for each compound: values may come before it.

Assays:
[1] = test system: B. bigemina; experiment: Babesia fluorescent (SYBR Green I) in vitro growth inhibition assay; format: cell-based; details: for IC50: B. bigemina, in vitro, 4 days
Excerpt: (§1) For the in vitro experiments, a German strain B. divergens, Argentine strain B. bigemina, Texas strain B. bovis, were cultivated in cattle RBCs, while USDA strains of equine piroplasm parasites (T. equi and B. caballi) were maintained in horse RBCs. […] For conducting the in vivo study, female BALB/c mice, aged six-week, obtained from CLEA Japan were infected with B. microti Munich strain [1]. […] GIT medium replenished with 40% horse serum was used as a growth medium for B. caballi parasite culture. To ensure free-bacterial contamination, all medium was supplemented with amphotericin B (0.15 μg/mL) (Sigma-Aldrich, USA), streptomycin (60 U/mL) and penicillin G (60 U/mL). The Babesia fluorescent assay was carried out on the in vitro culture as previously reported elsewhere. […] On day four of culture, an aliquot (100 μL) of lysis buffer was added to 0.2 μL/mL SG1 per well; subsequently, it was covered with aluminum foil to prevent exposure to light. After a 6-h incubation at 37 °C, fluorescence readings were acquired on a spectrofluorimeter (Fluoroskan Ascent, Thermo Fisher Scientific, USA) with a 485 nm excitation wavelength and a 518 nm emission wavelength. The IC50 values of the two extracts, DMA and ATV were established from the in vitro growth inhibition by nonlinear regression curve fit on a GraphPad Prism (GraphPad Software Inc., USA). While for in vivo, the significant variations (p < 0.05) among group mean values on parasitemia and one-way ANOVA Tukey's test in GraphPad Prism version 5.0 was used to analyze hematology profiles in mice infected with B. microti.

[2] = test system: B. bovis; experiment: as above; format: cell-based; details: for IC50: B. bovis, in vitro, 4 days
Excerpt: as §1

[3] = test system: B. caballi; experiment: as above; format: cell-based; details: for IC50: B. caballi, in vitro, 4 days
Excerpt: as §1

[4] = test system: B. divergens; experiment: as above; format: cell-based; details: for IC50: B. divergens, in vitro, 4 days
Excerpt: as §1

[5] = test system: T. equi; experiment: as above; format: cell-based; details: for IC50: T. equi, in vitro, 4 days
Excerpt: as §1

[6] = test system: Madin–Darby bovine kidney (MDBK) cells; experiment: Cytotoxicity assay on normal cells (CCK-8); format: cell-based; details: MDBK cell viability, 24 h
Method: (§2) Cultures of Human foreskin fibroblast (HFF; HFF-1 ATCC® SCRC-1041™), Madin–Darby bovine kidney (MDBK; ECACC) and mouse embryonic fibroblast (NIH/3 T3; ATCC® CRL-1658™) cells were retrieved from − 80 °C stock and cultured continuously at 37 °C under atmosphere 5% CO2 in our laboratory. The NIH/3 T3 and HFFs cells were preserved in Dulbecco Modified Eagle’s Medium (DMEM; Gibco, Grand Island, NY, USA), while MDBK cell line grown in Minimum Essential Medium Eagle (MEM; Gibco). All mediums were treated with 2 mM glutamine, 0.5% penicillin/streptomycin (Gibco) and 10% inactivated fetal bovine serum. Every 72 to 96 h, the medium was replaced, and once 80% confluence was reached, the cell collection was performed by sub-culture protocol. To confirm the absence of mycoplasma contamination, 4, 6-diamidino-2-phenylindole dihydrochloride (Sigma-Aldrich, USA) stain was used.
(§3) The cell viability test was conducted in a 96-well plate as described elsewhere. Briefly, an aliquot of (100 μL) cells was implanted at 5 × 10^4 cells/mL in DMEM or MEM with fetal bovine serum and incubated overnight under atmosphere 5% CO2 at 37 °C for attachment. Using two-fold dilutions, aliquots (10 μL) of herbal extracts and reference drugs were added in triplicate per well and further incubated for 24 h. The positive control wells containing cells mixed with the medium in 0.4% DMSO, whereas the negative control wells containing culture medium only. After a 24-h incubation, Cell Counting Kits-8 (CCK-8) (10 μL) was added per well and then plate incubation was conducted for an additional 3 h and a microplate reader was used to assess the absorbance at 450 nm.

[7] = test system: human foreskin fibroblast (HFF) cells; experiment: Cytotoxicity assay on normal cells (CCK-8); format: cell-based; details: HFF cell viability, 24 h
Method: as §2, §3

[8] = test system: mouse embryonic fibroblast (NIH/3 T3) cells; experiment: Cytotoxicity assay on normal cells (CCK-8); format: cell-based; details: 24 h
Method: as §2, §3

[9] = test system: B. microti; experiment: Chemotherapeutic effects against B. microti in infected BALB/c mice; format: in vivo
Method: For the in vitro experiments, a German strain B. divergens, Argentine strain B. bigemina, Texas strain B. bovis, were cultivated in cattle RBCs, while USDA strains of equine piroplasm parasites (T. equi and B. caballi) were maintained in horse RBCs. The parasite incubation occurred at 37 °C in a humidifying chamber under 90% N2, 5% O2, and 5% CO2 atmosphere using a microaerophilic stationary-phase culture. For conducting the in vivo study, female BALB/c mice, aged six-week, obtained from CLEA Japan were infected with B. microti Munich strain [1].
Twenty-five mice were placed in an environment free from pathogens with 22 °C temperature and adjusted humidity and under 12 h light and 12 h darkness and randomly distributed into five groups. The mice in groups 2 through 5 were obtained 500 μL of 1 × 10^7B. microti iRBC by intraperitoneal (i.p.) injection. Group 1 served as a negative control and was neither infected nor treated. At 1% parasitemia, drug treatment of the mice by i.p. started, continuing for 5 days. Group 2 act as a positive control group and received 95% DDW and 5% DMSO. […] The drug administration lasted for 5 days starting from the fourth day to the eighth day post-infection (p.i.), and parasitemia was checked by preparing Giemsa-stained smears every 2 days in about 2000 RBCs by microscopy until day 32 post-infection (p.i.). Furthermore, the hematological parameters, including hemoglobin (HGB), RBCs, and HCT, were determined by an automatic hematology analyzer (Celltac α MEK-6450, Nihon Kohden, Japan) every 4 days. After finishing the in vivo experiment, an anesthetic system using an inhaler containing isoflurane was used to euthanize all mice by placing them in the induction chamber, adjusting the oxygen flowmeter to 0.8 to 1.5 L/min and vaporizer to 3 to 5%. […]

[10] = test system: Leishmania; design: method as in PMID 28968213; details: cited from earlier work

IC50 ([1]; 96 h, read-out: IC50): 0.26 ± 0.03 µg/mL (≈ 0.709 µM)
IC50 ([2]; Bos taurus, 96 h, read-out: IC50): 0.015 ± 0.001 µg/mL (≈ 0.0409 µM)
IC50 ([3]; Babesia caballi, 96 h, read-out: IC50): 0.038 ± 0.01 µg/mL (≈ 0.104 µM)
IC50 ([4]; 96 h, read-out: IC50): 0.014 ± 0.002 µg/mL (≈ 0.0382 µM)
IC50 ([5]; 96 h, read-out: IC50): 0.035 ± 0.01 µg/mL (≈ 0.0954 µM)
Compound: O=C1C(O)=C([C@H]2CC[C@H](c3ccc(Cl)cc3)CC2)C(=O)c2ccccc21 [ATV, atovaquone]
Selective indices HFF ([1]; EC50 HFF / IC50 B. bigemina): ˃ 384.6
Selective indices MDBK ([1]; EC50 MDBK / IC50 B. bigemina): ˃ 384.6
Selective indices NIH/3 T3 ([1]; EC50 NIH/3 T3 / IC50 B. bigemina): ˃ 384.6
Selective indices HFF ([2]; EC50 HFF / IC50 B. bovis): ˃ 6666.7
Selective indices MDBK ([2]; EC50 MDBK / IC50 B. bovis): ˃ 6666.7
Selective indices NIH/3 T3 ([2]; EC50 NIH/3 T3 / IC50 B. bovis): ˃ 6666.7
Selective indices HFF ([3]; EC50 HFF / IC50 B. caballi): ˃ 2631.6
Selective indices MDBK ([3]; EC50 MDBK / IC50 B. caballi): ˃ 2631.6
Selective indices NIH/3 T3 ([3]; EC50 NIH/3 T3 / IC50 B. caballi): ˃ 2631.6
Selective indices HFF ([4]; EC50 HFF / IC50 B. divergens): ˃ 7142.9
Selective indices MDBK ([4]; EC50 MDBK / IC50 B. divergens): ˃ 7142.9
Selective indices NIH/3 T3 ([4]; EC50 NIH/3 T3 / IC50 B. divergens): ˃ 7142.9
Selective indices HFF ([5]; EC50 HFF / IC50 T. equi): ˃ 2857.1
Selective indices MDBK ([5]; EC50 MDBK / IC50 T. equi): ˃ 2857.1
Selective indices NIH/3 T3 ([5]; EC50 NIH/3 T3 / IC50 T. equi): ˃ 2857.1
EC50 ([6]; Bos taurus): > 100 µg/mL
EC50 ([7]; Homo sapiens): > 100 µg/mL
EC50 ([8]; Mus musculus, NIH3T3, NIH/3 T3 cell viability): > 100 µg/mL

IC50 [1]: 0.11 ± 0.01 µg/mL
IC50 [2]: 0.25 ± 0.02 µg/mL
IC50 [3]: 0.003 ± 0.001 µg/mL
IC50 [4]: 0.35 ± 0.03 µg/mL
IC50 [5]: 0.37 ± 0.01 µg/mL
Compound: CC(=O)NCC(=O)O.CC(=O)NCC(=O)O.N=C(N)c1ccc(N=NNc2ccc(C(=N)N)cc2)cc1 [DMA, diminazene aceturate]
EC50 MDBK [6]: ˃ 100 μg/mL
EC50 HFF [7]: ˃ 100 μg/mL
EC50 NIH/3 T3 ([8]; NIH/3 T3 cell viability): ˃ 100 μg/mL
Restriction of the parasitemia level ([9]; 25 mg kg−1, eighth day p.i., mice): 93.2%
Level of parasitemia ([9]; 25 mg kg−1 intraperitoneally for 5 days, 8 days p.i., BALB/c mice): 3.9%
Anemia development in mice ([9]; B. microti-infected mice): prohibited anemia development

Compound: O=C/C=C/c1ccccc1 [cinnamaldehyde]
IC50 antileishmanial effect [10]: 0.681 µg/mL (≈ 5.15 µM)

Compound: C=CCc1ccc(O)c(OC)c1 [eugenol]
IC50 antileishmanial effect [10]: 1.43 µg/mL (≈ 8.68 µM)
